Values quoted from earlier work, collected in patent US8524751B2, “4-oxadiazol-2-YL-indazoles as inhibitors of P13 kinases” (priority 2009, dated 2013).
pIC50: −log10 of the molar value. Read-outs that look alike come from different tables or passages of the source.

Key:
Class I PI3-kinases = settings: each of the Class I PI3-kinases

Row | SMILES | pIC50 (CK2 protein kinase) | pIC50 (Class I PI3-kinases; Fruman et al. 1998, read-out: IC50 values against each of these PI3-kinases) | pIC50 (Class I PI3-kinases; read-out: IC50 values against each of the various Class I PI3-kinases)
1 | O=c1cc(N2CCOCC2)oc2c(-c3ccccc3)cccc12 [LY294002] | 5.00 to 5.30 | 4.70 to 4.82 | –
2 | COC[C@H]1OC(=O)c2coc3c2[C@@]1(C)C1=C(C3=O)[C@@H]2CCC(=O)[C@@]2(C)C[C@H]1OC(C)=O [wortmannin] | – | – | 8.00 to 9.00
